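Compound exposure: 48 hours, 5 concentrations, 96-well plates. GI50: concentration for 50% inhibition of growth.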 The source made the active and inactive calls. Cut-off read from the data, not from the text of the source: active = GI50 up to about 1.1 µM and inactive = higher. A value given as a limit tells only on which side of the number the result lay.

Among the test systems are DU-145; RXF 393; HT-29; KM12; U-251; A498; HOP-92; SK-MEL-2; HL-60; NCI-H226; SK-MEL-5; SW-620; OVCAR-3; T47D; M14; OVCAR-8; SR; SK-MEL-28; NCI-H23; SNB-75.
Holding throughout (test): NCI anticancer screen, dose series, 48 h

Turning to `O=C(/C=C/c1ccccc1)CCN1CCCCC1`, the GI50 in the assay on DU-145 is > 100 µM (inactive); with RXF 393, 24.2 µM (inactive); in the assay with HT-29 it was 19.7 µM (inactive); in the assay on KM12, 28.5 µM (inactive); with U-251, 23.6 µM (inactive); in the assay on A498, 39.2 µM (inactive). Besides, the GI50 in the assay with HOP-92 was > 100 µM (inactive); in the assay with SK-MEL-2, > 100 µM (inactive); in the assay with HL-60 it was 29.4 µM (inactive); in the assay with NCI-H226, > 100 µM (inactive); with SK-MEL-5 it was 32.8 µM (inactive); in the assay with SW-620, 18.8 µM (inactive). Also, the GI50 in the assay with OVCAR-3 is 31.2 µM (inactive); in the assay with T47D, 35.5 µM (inactive); in the assay on M14, 17.5 µM (inactive); with OVCAR-8 it was 18.5 µM (inactive); in the assay with SR, 25.9 µM (inactive); with SK-MEL-28 it was 24.2 µM (inactive). The results for the GI50 with NCI-H23 and in the assay on SNB-75 were 24.8 µM (inactive) and 36.8 µM (inactive), respectively.
For `COc1ccc(Nc2nnc(-c3nsc4ccccc34)s2)cc1`, the GI50 is > 100 µM (inactive) in the assay on DU-145; 26.2 µM (inactive) in the assay on RXF 393; 39 µM (inactive) in the assay on HT-29; > 100 µM (inactive) in the assay on KM12; > 47.1 µM (inactive) with U-251; 3.78 µM (inactive) in the assay with A498. Further, the GI50 with HOP-92 is 9.73 µM (inactive); in the assay with SK-MEL-2, 78.7 µM (inactive); in the assay with HL-60 it was > 70.1 µM (inactive); with NCI-H226, 9.46 µM (inactive); with SK-MEL-5, > 84.3 µM (inactive); in the assay with SW-620, > 72.9 µM (inactive). Further, the GI50 in the assay with OVCAR-3 is 63 µM (inactive); in the assay with T47D, 20.1 µM (inactive); in the assay with M14 it was > 100 µM (inactive); in the assay with OVCAR-8, 49.8 µM (inactive); in the assay with SR, 39.9 µM (inactive); in the assay on SK-MEL-28, > 100 µM (inactive). The figures for the GI50 with NCI-H23 and in the assay with SNB-75 were > 100 µM (inactive) and 2.6 µM (inactive), respectively.
As to `CC[C@@]1(O)C(=O)OCc2c1cc1n(c2=O)Cc2c-1nc1ccc(O)cc1c2[Si](C)(C)C(C)(C)C` [AR-67], the GI50 in the assay on DU-145 was < 0.01 µM (active); with RXF 393 it was < 0.01 µM (active); with HT-29, 0.0855 µM (active); with KM12 it was 0.024 µM (active); with U-251, < 0.01 µM (active); with A498, 0.0211 µM (active). For the same compound, the GI50 in the assay on HOP-92 is 0.0132 µM (active); with SK-MEL-2, 0.125 µM (active); in the assay on HL-60, < 0.01 µM (active); in the assay with NCI-H226 it was < 0.01 µM (active); in the assay on SK-MEL-5, < 0.01 µM (active); in the assay on SW-620 it was < 0.01 µM (active). In addition, the GI50 is 0.0261 µM (active) in the assay with OVCAR-3; < 0.01 µM (active) with T47D; < 0.01 µM (active) in the assay with M14; < 0.0123 µM (active) in the assay on OVCAR-8; < 0.01 µM (active) in the assay with SR; 0.0317 µM (active) with SK-MEL-28. Besides, the GI50 in the assay on NCI-H23 and in the assay with SNB-75 was < 0.01 µM (active) each time.
Turning to `COC/C=C\[C@]1(O)CCCC[C@@H]1CC(OC)OC`, the GI50 in the assay on DU-145, in the assay with RXF 393, in the assay on HT-29, in the assay on KM12, in the assay with U-251 and in the assay on A498 was > 100 µM (inactive) in each case. Besides, the GI50 was > 100 µM (inactive) in the assay on HOP-92; > 100 µM (inactive) in the assay with SK-MEL-2; 20.4 µM (inactive) in the assay on HL-60; > 100 µM (inactive) with NCI-H226; > 100 µM (inactive) in the assay with SK-MEL-5; > 100 µM (inactive) in the assay on SW-620. Further, the GI50 in the assay with OVCAR-3 was > 100 µM (inactive); with T47D, > 100 µM (inactive); in the assay with M14, > 100 µM (inactive); in the assay on OVCAR-8 it was > 100 µM (inactive); in the assay with SR it was 81.1 µM (inactive); in the assay on SK-MEL-28 it was > 100 µM (inactive). Moreover, the GI50 in the assay with NCI-H23 and in the assay with SNB-75 was > 100 µM (inactive) throughout.
As for `C/C(=N\Nc1cc(CN2CCCC2)c(-c2ccc(Cl)cc2)nn1)C(=O)O`, the GI50 in the assay with DU-145, with RXF 393, with HT-29, in the assay with KM12, in the assay on U-251 and with A498 was > 100 µM (inactive) each time. For the same compound, the GI50 with HOP-92, in the assay with SK-MEL-2, with HL-60, in the assay on NCI-H226, with SK-MEL-5 and in the assay with SW-620 was > 100 µM (inactive) in each case. Further, the GI50 was 90.2 µM (inactive) in the assay with OVCAR-3; > 100 µM (inactive) in the assay on T47D; > 100 µM (inactive) in the assay on M14; > 100 µM (inactive) in the assay with OVCAR-8; > 100 µM (inactive) in the assay on SR; > 100 µM (inactive) with SK-MEL-28. Besides, the GI50 with NCI-H23 and in the assay on SNB-75 was > 100 µM (inactive) in each case.
Regarding `O=c1c2cnccc2cc2c3ccccc3ccn12`, the GI50 in the assay on DU-145 was > 100 µM (inactive); in the assay with RXF 393, > 100 µM (inactive); in the assay with HT-29, 28.2 µM (inactive); in the assay on KM12, 5.64 µM (inactive); with U-251, 68.4 µM (inactive); in the assay on A498, > 100 µM (inactive). In addition, the GI50 was > 100 µM (inactive) with HOP-92; > 100 µM (inactive) with SK-MEL-2; 17.7 µM (inactive) in the assay with HL-60; > 100 µM (inactive) in the assay with NCI-H226; 46.1 µM (inactive) in the assay on SK-MEL-5; 49.8 µM (inactive) in the assay on SW-620. The GI50 is > 100 µM (inactive) in the assay with OVCAR-3; 32.4 µM (inactive) in the assay with T47D; > 100 µM (inactive) with M14; 11.6 µM (inactive) in the assay on OVCAR-8; 2.03 µM (inactive) with SR; > 100 µM (inactive) with SK-MEL-28. Moreover, the GI50 in the assay on NCI-H23 was 51.6 µM (inactive); with SNB-75 it was 61 µM (inactive).
Turning to `COc1ccccc1OC(=O)/C=C/c1ccccc1`, the GI50 in the assay on DU-145, in the assay on RXF 393, in the assay with HT-29, in the assay on KM12, in the assay on U-251 and in the assay on A498 was > 100 µM (inactive) throughout. In addition, the GI50 was > 100 µM (inactive) with HOP-92; > 100 µM (inactive) in the assay on SK-MEL-2; 64.1 µM (inactive) with HL-60; > 100 µM (inactive) in the assay with NCI-H226; > 100 µM (inactive) in the assay with SK-MEL-5; > 100 µM (inactive) in the assay on SW-620. Also, the GI50 with OVCAR-3, in the assay on T47D, with M14, in the assay on OVCAR-8, with SR and with SK-MEL-28 was > 100 µM (inactive) in each case. The GI50 with NCI-H23 and in the assay with SNB-75 was > 100 µM (inactive) throughout.
For the compound `c1ccc(COC[C@H]2C3OCC([C@H](OCc4ccccc4)[C@H]3OCc3ccccc3)N2Cc2ccccc2)cc1` (stereo not given in full), the GI50 with DU-145 is > 48.2 µM (inactive); in the assay with RXF 393 it was > 100 µM (inactive); with HT-29 it was 46.6 µM (inactive); in the assay with KM12 it was 25.3 µM (inactive); with U-251 it was 26.2 µM (inactive); in the assay with A498, 33.7 µM (inactive). Besides, the GI50 in the assay with HOP-92 was > 57.1 µM (inactive); with SK-MEL-2 it was > 49.2 µM (inactive); with HL-60 it was 8.41 µM (inactive); in the assay on NCI-H226, 17.7 µM (inactive); in the assay on SK-MEL-5, 30.8 µM (inactive); with SW-620, > 57 µM (inactive). For the same compound, the GI50 in the assay on OVCAR-3 is 17.4 µM (inactive); in the assay with T47D, 13.6 µM (inactive); in the assay with M14, > 54 µM (inactive); in the assay with OVCAR-8 it was > 50 µM (inactive); with SR, 26.8 µM (inactive); in the assay on SK-MEL-28 it was > 53.2 µM (inactive). For the same compound, the GI50 in the assay with NCI-H23 was 40.3 µM (inactive); with SNB-75, 21.1 µM (inactive).
On to `COc1c(Cl)cc(NC(=S)C#N)cc1Cl`, for which the GI50 in the assay on DU-145 was 35.6 µM (inactive); in the assay with RXF 393, 27.3 µM (inactive); with HT-29, 22.8 µM (inactive); in the assay with KM12, 30.4 µM (inactive); in the assay on U-251, 17.7 µM (inactive); with A498, 19.1 µM (inactive). Besides, the GI50 with HOP-92 was 22.6 µM (inactive); in the assay with SK-MEL-2, 23.4 µM (inactive); in the assay on HL-60, > 100 µM (inactive); in the assay with NCI-H226, 22.5 µM (inactive); in the assay on SK-MEL-5 it was 15.8 µM (inactive); in the assay on SW-620, 31.3 µM (inactive). The GI50 in the assay on OVCAR-3 was 20.8 µM (inactive); with T47D, 12.6 µM (inactive); in the assay with M14 it was 24.5 µM (inactive); in the assay on OVCAR-8 it was 28.4 µM (inactive); in the assay with SR, 23.8 µM (inactive); with SK-MEL-28, 26.7 µM (inactive). Besides, the values for the GI50 with NCI-H23 and in the assay on SNB-75 were 19.3 µM (inactive) and 22.5 µM (inactive), respectively.
`O=S(=O)(c1ccc(Br)cc1)N1CCN(S(=O)(=O)c2ccc(Br)cc2)CC1`: the GI50 in the assay on DU-145, in the assay with RXF 393, in the assay on HT-29, with KM12, in the assay on U-251 and in the assay on A498 was > 100 µM (inactive) each time. For the same compound, the GI50 in the assay with HOP-92, in the assay on SK-MEL-2, in the assay on HL-60, with NCI-H226, in the assay with SK-MEL-5 and in the assay with SW-620 was > 100 µM (inactive) throughout. In addition, the GI50 in the assay on OVCAR-3 was > 100 µM (inactive); with T47D, > 100 µM (inactive); in the assay with M14 it was > 100 µM (inactive); with OVCAR-8 it was > 100 µM (inactive); in the assay on SR, 0.0703 µM (active); with SK-MEL-28, > 100 µM (inactive). The GI50 with NCI-H23 and in the assay with SNB-75 was > 100 µM (inactive) throughout.

The values are drawn from ChEMBL document CHEMBL1201862, “PubChem BioAssay data set” (2004).
